# Test results as given in US10160753B2, “Indazole compounds as IRAK4 inhibitors” (Aurigene Discovery Technologies Limited, priority 2014, dated 2018).
# Counter-ions that a name gives are not always drawn.
# Molecular target: T1, recombinant IRAK-4 kinase (Homo sapiens, UniProt Q9NWZ3)
# T1 construct: purchased Millipore, USA
# T1 sequence (Q9NWZ3 1-460): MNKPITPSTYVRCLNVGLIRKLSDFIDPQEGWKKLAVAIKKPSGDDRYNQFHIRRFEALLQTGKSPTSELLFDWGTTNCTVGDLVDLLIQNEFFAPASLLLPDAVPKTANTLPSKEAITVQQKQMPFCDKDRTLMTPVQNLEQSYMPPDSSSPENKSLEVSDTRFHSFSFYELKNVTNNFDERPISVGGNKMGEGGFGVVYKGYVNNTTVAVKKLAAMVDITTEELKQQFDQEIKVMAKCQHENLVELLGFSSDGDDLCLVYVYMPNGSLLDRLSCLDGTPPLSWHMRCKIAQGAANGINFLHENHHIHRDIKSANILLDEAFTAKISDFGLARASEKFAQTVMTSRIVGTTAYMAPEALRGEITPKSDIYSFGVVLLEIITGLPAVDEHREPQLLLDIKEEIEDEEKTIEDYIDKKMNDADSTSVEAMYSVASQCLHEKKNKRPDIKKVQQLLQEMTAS
# Test: IRAK-4 Biochemical Assay (TR-FRET)
# Details: 30 min pre-incubation, 100 nM Biotin Histone H3, 20 μM ATP, read-out: IC50 values for IRAK4 activity
# Experimental: Compounds were tested for their potential to inhibit IRAK-4 enzyme in a TR-FRET assay using recombinant IRAK-4 kinase from Millipore, USA. The assay buffer was 50 mM Tris-HCl pH 7.5, 20 mM MgCl2, 1 mM EGTA, 2 mM DTT, 3 mM MnCl2 and 0.01% Tween 20.5 ng of IRAK-4 kinase was used for the assay. After pre-incubation of enzyme with test compound for 30 minutes at room temperature, a substrate mixture containing 100 nM Biotin Histone H3 (Millipore, USA) and 20 μM ATP (Sigma, USA) was added and the reaction was incubated for 30 min. Post incubation, the reaction was stopped by the addition of stop mix containing 40 mM EDTA, 1 nM of Europium-Anti-Phospho-Histone H3 (Ser10) antibody (Perkin Elmer, USA) and 20 nM SureLight Allophycocyanin-Streptavidin (Perkin Elmer, USA). The fluorescence emission at 615 nm and 665 nm were measured at an excitation of 340 nm and the percent inhibition was estimated from the ratio of the fluorescence intensities [(F665/F615)×10000]. The compounds were initially screened at 1 μM and 10 μM concentrations and potent compounds (>50% inhibition at 1 μM) were taken for dose response studies. The IC50 values were estimated by fitting the dose-response data to sigmoidal dose response (variable slope), curve fitting program using Graphpad Prism software Version 6.01.
row,IC50 [nM],SMILES
1,< 50,"Cc1cc(-c2nc(C(=O)Nc3cc4cn(C)nc4cc3N3CCC(O)CC3)co2)cc(C)n1 [Example 126, 2-(2,6-dimethylpyridin-4-yl)-N-(6-(4-hydroxypiperidin-1-yl)-2-methyl-2H-indazol-5-yl) oxazole-4-carboxamide]"
2,< 50,"Cc1cc(-c2ccc(C(=O)Nc3cc4cn(C)nc4cc3N3CCC[C@@H](O)C3)o2)ccn1 [Example 69, (R)—N-(6-(3-hydroxypiperidin-1-yl)-2-methyl-2H-indazol-5-yl)-5-(2-methylpyridin-4-yl)furan-2-carboxamide]"
3,< 50,"C[C@H](O)Cn1cc(-c2cccc(C(=O)Nc3cc4cn(C)nc4cc3N3CCC(CO)CC3)n2)cn1 [Example 92, (S)—N-(6-(4-(hydroxymethyl)piperidin-1-yl)-2-methyl-2H-indazol-5-yl)-6-(1-(2-hydroxypropyl)-1H-pyrazol-4-yl)picolinamide]"
4,< 50,"COCCn1nc(C)c2cc(NC(=O)c3coc(-c4ccnc(C)c4)n3)c(N3CCC(CO)CC3)cc21 [Example 110, N-(6-(4-(hydroxymethyl)piperidin-1-yl)-1-(2-methoxyethyl)-3-methyl-1H-indazol-5-yl)-2-(2-methylpyridin-4-yl)oxazole-4-carboxamide]"
5,< 50,"Cc1cc(-c2nc(C(=O)Nc3cc4cn(C)nc4cc3N3CCCC(O)C3)co2)ccn1 (stereo not drawn) [Example 68, N-(6-(3-hydroxypiperidin-1-yl)-2-methyl-2H-indazol-5-yl)-2-(2-methylpyridin-4-yl)oxazole-4-carboxamide]"
6,< 50,"Cc1cc(-c2nc(C(=O)Nc3cc4cnn(C)c4cc3N3CCC(O)CC3)co2)ccn1 [Example 77, N-(6-(4-hydroxypiperidin-1-yl)-1-methyl-1H-indazol-5-yl)-2-(2-methylpyridin-4-yl)oxazole-4-carboxamide]"
7,< 50,"Cn1cc2cc(NC(=O)c3coc(-c4ccnc(N)c4)n3)c(N3CCCCC3)cc2n1 [Example 86, 2-(2-aminopyridin-4-yl)-N-(2-methyl-6-(piperidin-1-yl)-2H-indazol-5-yl)oxazole-4-carboxamide hydrochloride]"
8,< 50,"Cn1cc2cc(NC(=O)c3coc(-c4ccnc(N)c4)n3)c(N3CCC(CO)CC3)cc2n1 [Example 100, 2-(2-aminopyridin-4-yl)-N-(6-(4-(hydroxymethyl)piperidin-1-yl)-2-methyl-2H-indazol-5-yl)oxazole-4-carboxamide hydrochloride]"
9,< 50,"Cc1cc(-c2nc(C(=O)Nc3cc4cn(C)nc4cc3N3CCCC(F)C3)co2)ccn1 (stereo not drawn) [Example 79, N-(6-(3-fluoropiperidin-1-yl)-2-methyl-2H-indazol-5-yl)-2-(2-methylpyridin-4-yl)oxazole-4-carboxamide]"
10,> 100,"Cn1ncc2cc(NC(=O)c3coc(N4CC[C@H](N)C4)n3)c(C3CC3)cc21 [Example 51, (S)-2-(3-aminopyrrolidin-1-yl)-N-(6-cyclopropyl-1-methyl-1H-indazol-5-yl)oxazole-4-carboxamide]"
11,< 50,"Cc1cc(-c2ccc(C(=O)Nc3cc4cn(C)nc4cc3N3CCCCC3)o2)ccn1 [Example 66, N-(2-methyl-6-(piperidin-1-yl)-2H-indazol-5-yl)-5-(2-methylpyridin-4-yl)furan-2-carboxamide]"
12,> 100,"Cn1cc2cc(NC(=O)c3coc(N4CC[C@H](N)C4)n3)c(C3CC3)cc2n1 [Example 54, (S)-2-(3-aminopyrrolidin-1-yl)-N-(6-cyclopropyl-2-methyl-2H-indazol-5-yl)oxazole-4-carboxamide]"
13,< 50,"Cc1cc(-c2nc(C(=O)Nc3cc4cn(C)nc4cc3N3CC(O)C3)co2)ccn1 [Example 61, N-(6-(3-hydroxyazetidin-1-yl)-2-methyl-2H-indazol-5-yl)-2-(2-methylpyridin-4-yl)oxazole-4-carboxamide]"
14,< 50,"Cc1cc(-c2nc(C(=O)Nc3cc4cnn(C)c4cc3N3CCC(CO)CC3)co2)ccn1 [Example 89, N-(6-(4-(hydroxymethyl)piperidin-1-yl)-1-methyl-1H-indazol-5-yl)-2-(2-methylpyridin-4-yl)oxazole-4-carboxamide]"
15,< 50,"Cn1cc2cc(NC(=O)c3coc(-c4ccnc(N)c4)n3)c(N3CCCC(F)C3)cc2n1 (stereo not drawn) [Example 104, 2-(2-aminopyridin-4-yl)-N-(6-(3-fluoropiperidin-1-yl)-2-methyl-2H-indazol-5-yl)oxazole-4-carboxamide hydrochloride]"
16,< 50,"Cn1cc2cc(NC(=O)c3coc(-c4ccnc(N)c4)n3)c(N3CC[C@@H](O)C3)cc2n1 [Example 105, (R)-2-(2-aminopyridin-4-yl)-N-(6-(3-hydroxypyrrolidin-1-yl)-2-methyl-2H-indazol-5-yl)oxazole-4-carboxamide hydrochloride]"

# Second part, the compound before the results:
row,SMILES,IC50 [nM]
1,"Cc1cc(-c2nc(C(=O)Nc3cc4cnn(C5CC5)c4cc3C3CC3)co2)ccn1 [Example 36, N-(1,6-dicyclopropyl-1H-indazol-5-yl)-2-(2-methylpyridin-4-yl)oxazole-4-carboxamide hydrochloride]",50 to 100
2,"O=C(Nc1cc2cn(C3CCCC3)nc2cc1C1CC1)c1cccc(-c2cn[nH]c2)n1 [Example 7, N-(2-cyclopentyl-6-cyclopropyl-2H-indazol-5-yl)-6-(1H-pyrazol-4-yl) picolinamide]",< 50
3,"COc1ccc(-c2nc(C(=O)Nc3cc4cn(C)nc4cc3N3CCCCC3)co2)cn1 [Example 21, 2-(6-methoxypyridin-3-yl)-N-(2-methyl-6-(piperidin-1-yl)-2H-indazol-5-yl)oxazole-4-carboxamide]",< 50
4,"Cn1cc2cc(NC(=O)c3coc(-c4ccnc(Cl)c4)n3)c(N3CCCCC3)cc2n1 [Example 15, 2-(2-chloropyridin-4-yl)-N-(2-methyl-6-(piperidin-1-yl)-2H-indazol-5-yl)oxazole-4-carboxamide hydrochloride]",< 50
5,"Cn1cc2cc(NC(=O)c3cccc(-c4cn[nH]c4)n3)c(N3CCCCC3)cc2n1 [Example 1, N-(2-methyl-6-(piperidin-1-yl)-2H-indazol-5-yl)-6-(1H-pyrazol-4-yl) picolinamide]",< 50
6,"Cn1cc2cc(NC(=O)c3cccc(N4CC[C@H](N)C4)n3)c(N3CCCCC3)cc2n1 [Example 33, (S)-6-(3-aminopyrrolidin-1-yl)-N-(2-methyl-6-(piperidin-1-yl)-2H-indazol-5-yl)picolinamide 2,2,2-trifluoroacetate]",50 to 100
7,"Cc1cc(-c2nc(C(=O)Nc3cc4cn(C)nc4cc3C3CC3)co2)ccn1 [Example 16, N-(6-cyclopropyl-2-methyl-2H-indazol-5-yl)-2-(2-methylpyridin-4-yl)oxazole-4-carboxamide hydrochloride]",< 50
8,"Cc1ncccc1-c1nc(C(=O)Nc2cc3cn(C4CCCC4)nc3cc2C2CC2)co1 [Example 26, N-(2-cyclopentyl-6-cyclopropyl-2H-indazol-5-yl)-2-(2-methylpyridin-3-yl)oxazole-4-carboxamide]",< 50
9,"Cc1cc(-c2nc(C(=O)Nc3cc4cn(C5CCCC5)nc4cc3C3CC3)co2)ccn1 [Example 6, N-(2-cyclopentyl-6-cyclopropyl-2H-indazol-5-yl)-2-(2-methylpyridin-4-yl) oxazole-4-carboxamide]",< 50
10,"Cc1cnccc1-c1nc(C(=O)Nc2cc3cn(C4CCCC4)nc3cc2C2CC2)co1 [Example 27, N-(2-cyclopentyl-6-cyclopropyl-2H-indazol-5-yl)-2-(3-methylpyridin-4-yl)oxazole-4-carboxamide]",< 50
11,"Cn1ncc2cc(NC(=O)c3coc(N4CC[C@H](O)C4)n3)c(C3CC3)cc21 [Example 50, (S)—N-(6-cyclopropyl-1-methyl-1H-indazol-5-yl)-2-(3-hydroxypyrrolidin-1-yl)oxazole-4-carboxamide]",> 100
12,"Cn1cc2cc(NC(=O)c3cccc(-c4cn[nH]c4)n3)c(C3CCCCC3)cc2n1 [Example 13, N-(6-cyclohexyl-2-methyl-2H-indazol-5-yl)-6-(1H-pyrazol-4-yl)picolinamide hydrochloride]",< 50
13,"Cc1ccc(-c2nc(C(=O)Nc3cc4cn(C)nc4cc3N3CCCCC3)co2)cn1 [Example 25, N-(2-methyl-6-(piperidin-1-yl)-2H-indazol-5-yl)-2-(6-methylpyridin-3-yl)oxazole-4-carboxamide]",< 50
14,"Cc1cc(-c2nc(C(=O)Nc3cc4cn(C5CCCC5)nc4cc3N3CCCCC3)co2)ccn1 [Example 4, N-(2-cyclopentyl-6-(piperidin-1-yl)-2H-indazol-5-yl)-2-(2-methylpyridin-4-yl) oxazole-4-carboxamide]",< 50
